Assay results: US10906910B2, “Substituted bicyclic pyrimidine compounds with tubulin and multiple receptor inhibition” (Duquesne University of the Holy Spirit, priority 2014, dated 2021)
Like-named read-outs stand apart in the source and are kept apart here. Values belong to the compound of their own block, whether it stands above or below them.

What was measured:
[1] = molecular target: VEGFR2 (Homo sapiens, UniProt P35968); test: VEGFR2 kinase inhibition, whole-cell assay; format: cell-based; settings: read-out: kinase inhibition IC50 [whole-cell assays] VEGFR2
[2] = molecular target: EGFR (Homo sapiens, UniProt P00533); test: EGFR kinase inhibition, whole-cell assay; format: cell-based; settings: read-out: kinase inhibition IC50 [whole-cell assays] EGFR
[3] = tested on: wild type HeLa cells; test: HeLa cytotoxicity, wild type; format: cell-based
[4] = molecular target: PDGFRβ (Homo sapiens, UniProt P09619); test: PDGFRβ kinase inhibition, whole-cell assay; format: cell-based; settings: whole-cell assay; read-out: kinase inhibition IC50 [whole-cell assays] PDGFRβ
[5] = tested on: βIII-tubulin overexpressing HeLa cell line; test: HeLa cytotoxicity, βIII-tubulin overexpressing; format: cell-based; settings: βIII-tubulin overexpressing HeLa
[6] = tested on: A431 cells; test: A431 cytotoxicity; format: cell-based; settings: Homo sapiens, A-431
[7] = tested on: 4T1-Luc2GFP triple negative mouse breast cancer cells; format: in vivo; settings: mouse, in vivo
Method: BALB/c mice were implanted with 7.5 k 4T1-Luc2GFP triple negative mouse breast cancer cells orthotopically into mammary fat pad 4. 7 days after implantation, tumors are visible in over 90% of animals. At day 8 and continuing twice weekly until the experiment end, the MTD of compound 4.HCl (i.e. the hydrochloride salt of compound 4 shown in FIG. 1), determined to be 40 mg/kg, was given IP to tumor-bearing mice; […]; Both drugs were in solvent (5% solutol-15, 5% PharmaSolve in normal saline) and a solvent control group was included in addition to sham injected (untreated) group. Primary tumor volume and animal weights was assessed by calipers throughout the experiment.
On day 40, all animals were injected IV with fluorescently labeled dextran as a marker of vasculature. Tumors were excised and weighed; lungs were excised and evaluated for metastases. […]; large micro metastases (>10 cells with no vasculature) and macrometastases (>10 cells with apparent vasculature) were counted. […]

Sequence of VEGFR2 (P35968 20-1356, species assumed): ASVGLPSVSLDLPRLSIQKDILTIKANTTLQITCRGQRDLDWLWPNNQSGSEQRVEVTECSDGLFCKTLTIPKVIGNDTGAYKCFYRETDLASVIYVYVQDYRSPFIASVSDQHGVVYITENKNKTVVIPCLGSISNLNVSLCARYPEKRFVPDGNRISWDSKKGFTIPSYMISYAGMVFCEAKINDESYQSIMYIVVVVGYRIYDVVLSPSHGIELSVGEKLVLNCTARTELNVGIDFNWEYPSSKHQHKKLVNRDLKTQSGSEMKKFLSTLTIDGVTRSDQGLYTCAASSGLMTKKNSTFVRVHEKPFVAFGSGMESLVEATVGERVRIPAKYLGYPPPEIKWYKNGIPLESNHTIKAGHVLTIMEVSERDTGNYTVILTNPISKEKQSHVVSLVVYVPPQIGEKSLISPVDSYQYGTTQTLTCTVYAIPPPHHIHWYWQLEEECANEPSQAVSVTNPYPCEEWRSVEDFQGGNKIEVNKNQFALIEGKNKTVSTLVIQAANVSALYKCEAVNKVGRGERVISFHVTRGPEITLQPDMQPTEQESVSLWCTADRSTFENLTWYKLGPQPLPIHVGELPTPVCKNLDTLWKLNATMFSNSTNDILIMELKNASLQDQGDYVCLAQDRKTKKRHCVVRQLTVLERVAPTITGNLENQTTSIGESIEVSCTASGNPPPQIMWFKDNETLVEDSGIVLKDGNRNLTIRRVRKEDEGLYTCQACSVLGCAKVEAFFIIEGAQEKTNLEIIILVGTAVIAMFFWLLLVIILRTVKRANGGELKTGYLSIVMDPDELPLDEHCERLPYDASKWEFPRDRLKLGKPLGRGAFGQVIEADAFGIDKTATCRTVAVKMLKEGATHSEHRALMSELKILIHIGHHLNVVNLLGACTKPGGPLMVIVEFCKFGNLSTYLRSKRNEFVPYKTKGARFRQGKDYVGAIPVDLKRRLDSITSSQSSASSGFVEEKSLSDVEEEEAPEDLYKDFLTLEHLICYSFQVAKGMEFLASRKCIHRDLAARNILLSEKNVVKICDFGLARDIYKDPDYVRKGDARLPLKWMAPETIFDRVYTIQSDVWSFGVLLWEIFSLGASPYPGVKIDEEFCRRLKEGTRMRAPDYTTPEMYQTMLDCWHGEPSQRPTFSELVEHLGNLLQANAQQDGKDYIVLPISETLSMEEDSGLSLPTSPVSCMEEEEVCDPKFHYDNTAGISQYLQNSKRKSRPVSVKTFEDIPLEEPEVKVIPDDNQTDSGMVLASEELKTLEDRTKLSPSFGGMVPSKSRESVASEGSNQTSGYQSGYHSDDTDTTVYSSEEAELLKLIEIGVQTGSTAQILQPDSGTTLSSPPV
Sequence of EGFR (P00533 25-1210, species assumed): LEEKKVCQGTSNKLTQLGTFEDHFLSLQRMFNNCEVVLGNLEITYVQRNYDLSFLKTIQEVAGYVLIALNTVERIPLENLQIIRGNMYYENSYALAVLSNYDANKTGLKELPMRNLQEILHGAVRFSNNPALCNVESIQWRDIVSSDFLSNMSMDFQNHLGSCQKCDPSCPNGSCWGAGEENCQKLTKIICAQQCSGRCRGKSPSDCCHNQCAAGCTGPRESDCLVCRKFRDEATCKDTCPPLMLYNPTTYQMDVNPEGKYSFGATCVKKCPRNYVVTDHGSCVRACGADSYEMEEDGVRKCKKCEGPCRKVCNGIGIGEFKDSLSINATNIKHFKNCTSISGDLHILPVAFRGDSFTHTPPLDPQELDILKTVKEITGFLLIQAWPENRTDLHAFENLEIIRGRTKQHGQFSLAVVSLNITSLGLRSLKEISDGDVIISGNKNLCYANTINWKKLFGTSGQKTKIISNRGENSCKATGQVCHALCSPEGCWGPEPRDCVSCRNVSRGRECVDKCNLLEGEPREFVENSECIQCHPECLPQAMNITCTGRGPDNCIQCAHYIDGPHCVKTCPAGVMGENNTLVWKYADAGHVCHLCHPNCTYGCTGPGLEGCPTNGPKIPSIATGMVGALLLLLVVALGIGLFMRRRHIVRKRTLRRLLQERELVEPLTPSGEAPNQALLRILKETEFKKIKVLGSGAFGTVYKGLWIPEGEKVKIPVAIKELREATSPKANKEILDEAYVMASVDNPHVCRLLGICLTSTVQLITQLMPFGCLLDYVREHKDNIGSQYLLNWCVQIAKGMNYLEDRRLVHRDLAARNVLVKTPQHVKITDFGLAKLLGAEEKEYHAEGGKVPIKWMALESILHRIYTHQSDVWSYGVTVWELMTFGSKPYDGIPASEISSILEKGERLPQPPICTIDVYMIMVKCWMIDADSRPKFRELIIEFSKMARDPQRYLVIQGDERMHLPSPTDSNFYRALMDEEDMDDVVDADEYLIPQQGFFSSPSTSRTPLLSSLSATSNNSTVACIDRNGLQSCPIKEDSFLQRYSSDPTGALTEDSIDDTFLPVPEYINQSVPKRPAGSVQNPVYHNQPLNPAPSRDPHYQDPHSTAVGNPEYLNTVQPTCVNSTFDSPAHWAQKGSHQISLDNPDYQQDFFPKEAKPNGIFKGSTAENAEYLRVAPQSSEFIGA
Sequence of PDGFRβ (P09619 33-1106, species assumed): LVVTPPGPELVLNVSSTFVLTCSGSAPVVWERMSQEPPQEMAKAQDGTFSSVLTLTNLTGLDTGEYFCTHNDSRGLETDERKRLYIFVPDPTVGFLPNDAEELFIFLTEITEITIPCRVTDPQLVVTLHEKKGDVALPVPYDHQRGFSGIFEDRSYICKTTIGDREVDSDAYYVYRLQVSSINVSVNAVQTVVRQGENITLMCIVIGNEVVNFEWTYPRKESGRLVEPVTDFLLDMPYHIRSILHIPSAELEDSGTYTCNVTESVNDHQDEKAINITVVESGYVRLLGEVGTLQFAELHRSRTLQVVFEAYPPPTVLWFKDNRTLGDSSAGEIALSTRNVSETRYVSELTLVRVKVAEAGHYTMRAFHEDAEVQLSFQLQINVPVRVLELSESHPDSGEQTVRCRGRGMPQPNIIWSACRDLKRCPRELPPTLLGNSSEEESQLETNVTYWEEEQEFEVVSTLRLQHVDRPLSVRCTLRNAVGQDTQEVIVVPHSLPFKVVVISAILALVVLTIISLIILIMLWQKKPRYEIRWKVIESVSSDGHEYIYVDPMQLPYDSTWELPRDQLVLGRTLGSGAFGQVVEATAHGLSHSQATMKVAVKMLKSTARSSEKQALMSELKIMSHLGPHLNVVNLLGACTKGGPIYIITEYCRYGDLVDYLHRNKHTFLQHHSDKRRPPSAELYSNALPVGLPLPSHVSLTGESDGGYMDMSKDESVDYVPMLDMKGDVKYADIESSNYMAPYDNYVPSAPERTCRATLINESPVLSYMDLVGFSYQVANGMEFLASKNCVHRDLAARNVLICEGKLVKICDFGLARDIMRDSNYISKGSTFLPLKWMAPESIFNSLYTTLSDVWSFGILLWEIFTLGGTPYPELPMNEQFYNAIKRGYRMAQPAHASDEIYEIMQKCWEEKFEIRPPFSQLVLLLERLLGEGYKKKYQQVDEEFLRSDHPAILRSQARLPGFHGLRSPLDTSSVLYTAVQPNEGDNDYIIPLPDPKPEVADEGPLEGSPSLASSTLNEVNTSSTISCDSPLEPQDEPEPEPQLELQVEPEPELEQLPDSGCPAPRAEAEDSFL

melting point: 130 to 132 °C
IC50 [1]: 32.9 nM
IC50 [2]: 4.9 ± 0.6 nM
IC50 [4]: 30.2 nM
SMILES: COc1ccc2c(c1)CCCN2c1nc(C)nc2c(Cc3ccccc3)cn(C)c12 [Compound 5, 1-(7-Benzyl-2,5-dimethyl-5H-pyrrolo[3,2-d]pyrimidin-4-yl)-6-methoxy-1,2,3,4-tetrahydroquinoline]
IC50 ([3]; Homo sapiens): 60 nM

SMILES: COc1ccc(/C=C\c2cc(OC)c(OC)c(OC)c2)cc1O [combretastatin A-4, reference compound]
IC50 [3]: 1.8 nM
IC50 [5]: 2.5 ± 0.7 nM

SMILES: COc1cccc2c1C(=O)c1c(O)c3c(c(O)c1C2=O)C[C@@](O)(C(=O)CO)C[C@@H]3O[C@H]1C[C@H](N)[C@H](O)[C@H](C)O1 [doxorubicin, reference compound]
IC50 [6]: 1.35 nM
animal weight [7]: began to result in weight loss in a few animals
